System: maximal electroshock seizures (MES)
Test: antagonism of maximal electroshock seizures (MES) after oral administration
Format: in vivo
Settings: limits in parentheses, read-out: MES-ED50 (effective dose in 50% of treated animals)
Experimental: The activity on the CNS of the compounds of the invention was evaluated on the basis of pharmacological methods, such as, for example, the antagonism of convulsions and lethality induced by intravenous injection of bicuculline in mice (Antiepileptic Drugs, D. M. Woodbury et al. eds., 2nd edition, Raven Press, New York, 1982), or the antagonism of maximal electroshock seizures (MES) (Woodbury, L. A. and Davenport, V. D., Arch. Int. Pharmacodyn. Ther. 92; 97-104, 1952).
The following table summarizes the activity data obtained by testing in the MES test a representative group of compounds of the invention in comparison with the respective 2-desmethyl related compounds known from WO 90/14334.
ED50 means effective dose in 50% of treated animals after per os (po) administration.

With `CC(C)(NCc1ccc(OCc2cccc(Cl)c2)cc1)C(N)=O` [FCE 29644A, 2-[4-(3-chlorobenzyloxy)benzylamino]-2-methyl-propanamide, methanesulfonate] the ED50 was 3.88 mg/kg.
For `CC(C)(NCc1ccc(SCc2ccccc2)cc1)C(N)=O` [FCE 29482A, 2-[(4-benzylsulfanyl)benzylamino]-2-methyl-propanamide, methanesulfonate], the ED50 was 3.12 mg/kg.
With `C[C@H](NCc1ccc(OCc2ccccc2F)cc1)C(N)=O` [FCE 26742A, (S)-2-(4-(2-fluorobenzyloxy)benzylamino) propanamide, methanesulfonate] the ED50 was 7.13 mg/kg.
`CC(C)(NCc1ccc(OCc2ccc(F)cc2)cc1)C(N)=O.CS(=O)(=O)O` [FCE 29645A, 2-[4-(4-fluorobenzyloxy)benzylamino]-2-methyl-propanamide, methanesulfonate] was tested, and the ED50 was 6.58 mg/kg.
Compound `C[C@H](NCc1ccc(OCc2cccc(Cl)c2)cc1)C(N)=O` [FCE 26193A, (S)-2-(4-(3-chlorobenzyloxy)benzylamino) propanamide, methanesulfonate] has an ED50 of 9.41 mg/kg.
For `CNC(=O)[C@H](C)NCc1ccc(OCc2cccc(F)c2)cc1.CS(=O)(=O)O` [FCE 28657A, (S)-2-(4-(3-fluorobenzyloxy)benzylamino)-N-methylpropanamide, methanesulfonate], the ED50 was 9.35 mg/kg.
`CNC(=O)C(C)(C)NCc1ccc(OCc2cccc(F)c2)cc1.CS(=O)(=O)O` [FCE 29647A, 2-[4-(3-fluorobenzyloxy)benzylamino]-2-methyl-N-methyl-propanamide, methanesulfonate] was tested, and the ED50 was 4.34 mg/kg.
`C[C@H](NCc1ccc(OCc2cccc(F)c2)cc1)C(N)=O` [FCE 26743A, (S)-2-(4-(3-fluorobenzyloxy)benzylamino) propanamide, methanesulfonate] was tested, and the ED50 was 8.2 mg/kg.
For `CC(C)(NCc1ccc(OCc2cccc(F)c2)cc1)C(N)=O` [FCE 29088A, 2-[4-(3-fluorobenzyloxy)benzylamino]-2-methyl-propanamide, methanesulfonate], the ED50 was 4.4 mg/kg.
Compound `C[C@H](NCc1ccc(SCc2ccccc2)cc1)C(N)=O` [FCE 26727A, (S)-2-(4-benzylsulfanyl)benzylamino) propanamide, methanesulfonate] has an ED50 of 12.7 mg/kg.
`C[C@H](NCc1ccc(OCc2ccc(F)cc2)cc1)C(N)=O` [FCE 26998A, (S)-2-(4-(4-fluorobenzyloxy)benzylamino) propanamide, methanesulfonate] showed an ED50 of 16.3 mg/kg.
In the case of `CC(C)(NCc1ccc(OCc2ccccc2F)cc1)C(N)=O.CS(=O)(=O)O` [FCE 29484A, 2-[4-(2-fluorobenzyloxy)benzylamino]-2-methyl-propanamide, methanesulfonate], the ED50 is reported as 3.1 mg/kg.

Source: patent publication US5945454A, “2-(4-substituted)-benzylamino-2-methyl-propanamide derivatives” (Pharmacia & Upjohn, S.P.A., priority 1995, dated 1999)
